# Data published in patent US20080170990A1, “Methods for Myocardial Imaging in Patients Having a History of Pulmonary Disease” (CV THERAPEUTICS, INC., priority 2006, published 2008).
# How the values were obtained:
# [1] = test system: patients undergoing a clinically indicated coronary catheterization; assay: Coronary blood flow velocity (CBFv) by Doppler flow wire after IV bolus, open label study (Example 1); type: in vivo, human
# Experimental: The purpose of this open label study was to determine the magnitude and duration of effect of Regadenoson (10-500 μg) on CBFv in humans.
# Patients undergoing a clinically indicated coronary catheterization with no more than a 70% stenosis in any coronary artery and no more than a 50% stenosis of the study vessel had CBFv determined by Doppler flow wire. Study subjects were selected after measuring baseline and peak CBFv after an intracoronary (IC) injection of 18 μg of Ado. Twenty-three patients, who were identified as meeting the study criteria of having a peak to baseline CBFv ration of ≧2.5 in response to Adenosine, received a rapid (≦10 sec) peripheral IV bolus of Regadenoson; Doppler signals were stable and interpretable over the time-course of the increase in CBFv in 17 patients.
# anesthetized dog = assay: Blood flow velocity in various vascular beds, intravascular Doppler (Example 4); type: in vivo; settings: 1.0 μg/kg intravenous bolus
# Excerpt: The effects of Regadenoson were quantified as the average peak blood flow velocity (APV) using intravascular Doppler transducer tipped catheter. Heart rate (HR) and systemic arterial blood pressure (BP) were also monitored.
# [2] = test system: patients with moderate or several chronic obstructive pulmonary disease (COPD); assay: Double-blind placebo-controlled crossover trial in chronic obstructive pulmonary disease (Example 11); type: in vivo, human
# Experimental: Two similar randomized, double-blind, placebo (PLC)-controlled crossover trials were conducted, one in asthmatics with a positive adenosine monophosphate (AMP) challenge (a validated marker of airway inflammation) and one in patients with moderate or several chronic obstructive pulmonary disease (COPD). In both studies, short-acting bronchodilators were held prior to and for the 120 minute time frame study drug treatment during which spirometry was repeatedly assessed.
# COPD patients = settings: both, human, in vivo
# Excerpt: COPD patients were selected from two phase III randomized, triple-blind, placebo-controlled, multicenter studies (N=2,015) designed to test the strength of agreement for reversible cardiac defects between ADO and REG. There were 35 patients in the ADO group and 69 in the Regadenoson group. Age and gender were similar between ADO (68=11 yrs; 77% male) and Regadenoson group (68±11 yrs; 81% male). Of the 35 patients, 5 suffered (14%) cardiac symptoms in the ADO group vs 3/69 (4%) in the Regadenoson group (p=0.12); 14/35 (40%) in the ADO vs. 20/69 (29%) in the Regadenoson group resorted respiratory symptoms (p=0.28). Angina, occurrence of second degree AV block, acute pulmonary oedema and ronchi were higher in ADO group; nausea, GI discomfort and headache occurred more often in the Regadenoson group.
# awake dogs = assay: Blood flow in coronary, mesenteric, hind limb and renal vascular beds (Example 8); type: in vivo, dog
# Excerpt: In this study the vasodilator effects of Regadenoson were compared to those of ADO in different vascular beds in awake dogs. Dogs were chronically instrumented for measurements of the blood flow in coronary (CBF), mesenteric (MBF), hind limb (LBF), and renal (RBF) vascular beds, and hemodynamics.
# [3] = test system: patients undergoing a clinically indicated coronary catheterization; assay: Dose-ranging study of coronary flow velocity, heart rate and blood pressure after IV bolus (Example 2); type: in vivo, human
# Experimental: The study included patients undergoing a clinically indicated coronary catheterization with no more than a 70% stenosis in any coronary artery and no more than a 50% stenosis of the study vessel had CBFv determined by Doppler flow wire. Study subject were selected after measuring baseline and peak CBFv after an intracoronary (IC) injection of 18 μg of Ado. 36 subjects were identified as meeting the study criteria of having a peak to baseline CBFv ration of ≧2.5 in response to Adenosine,
# Regadenoson was administered to the study subjects by IV bolus in less than 10 seconds in amounts ranging from 10 μg to 500 μg. Regadenoson is selective for the A2A adenosine receptor.
# The effectiveness of both compounds was measured by monitoring coronary flow velocity. Other coronary parameters that were monitored included heart rate and blood pressure. These parameters were measured in order to evaluate the time to peak dose response, the magnitude of the dose response and the duration of the dose response. Adverse events were also monitored. Coronary blood flow velocity was measured at the LAD or LCx vessel. The velocity measurements were taken by following standard heart catheterization techniques and inserting a 0.014 inch Doppler-tipped Flowire into the LAD or LCx vessel and thereafter monitoring blood flow velocity. In addition, hemodynamic and electrocardiographic measurements were recorded continuously.
# Overall, 36 human subjects (n=36) were evaluated. Of the 36, 18 were female and 18 were male. Their mean age was 53.4 and they ranged from 24-72 years in age. Of the 36 subjects evaluated, the LAD vessel of 31 subjects was monitored, and the LCx vessel of 5 subjects was monitored. The following doses (μg) of Regadenoson were given to the subjects in a single iv bolus: 10 (n=4); 30 (n=6); 100 (n=4); 300 (n=7); 400 (n=9); 500 (n=6).
# awake rats = assay: Sympathoexcitation: heart rate, blood pressure and plasma catecholamines after i.v. bolus (Example 5); type: in vivo, rat
# Experimental: CVT (0.31 μg/kg-50 μg/kg) was given as a rapid i.v. bolus to awake rats and heart rate (HR) and blood pressure (BP) were monitored. Regadenoson caused an increase in BP and systolic pressure (SP) at lower doses while at higher doses there was a decrease in BP and SP. […] The increase in HR was evident at the lowest dose of CVT at which there was no appreciable decrease in BP. ZM241385 (30 μg/kg, N=5), an A2A adenosine receptor antagonist, attenuated the decrease in BP (Regadenoson: 14±3%, ZM: 1±1%) and the increase in HR (CVT: 27±3%, ZM: 18±3%) caused by Regadenoson. Pretreatment with metoprolol (MET, 1 mg/kg, n=5), a beta-blocker, attenuated the increase in HR (CVT: 27±3%, MET: 15±2%), but had no effect on hypotension caused by Regadenoson. In the presence of hexamethonium (HEX, 10 mg/kg, n=5), a ganglionic blocker, the tachycardia was prevented (CVT: 27±3%, HEX: −1±2%), but BP was further reduced (CVT: −11±2%, HEX: −49±5%).
# [4] = 400 μg IV bolus, about 1 minute after dosing
smiles,measurement,setting,value
"CNC(=O)c1cnn(-c2nc(N)c3ncn([C@@H]4O[C@H](CO)[C@@H](O)[C@H]4O)c3n2)c1 [Regadenoson, (1-{9-[(4S,2R,3R,5R)-3,4-dihydroxy-5-(hydroxymethyl)oxolan-2-yl]-6-aminopurin-2-yl}pyrazol-4-yl)-N-methylcarboxamide]",maximal decrease in systolic BP,[1]; 500 μg IV bolus,8.7±7.6
same,maximal increase in HR,[1]; 500 μg IV bolus,18.7±4.0
same,adverse events (AEs),[1]; 3 patients receiving the 500 μg dose,No AEs
same,adverse events (AEs),"[1]; 10-500 μg IV bolus, nausea, flushing, headache, mild and self-limited",infrequent
same,peak to baseline CBFv ratio,"[1]; Regadenoson 100, 300 and 500 μg IV bolus, mean ±SD",3.2±0.6
same,time for effect on blood flow velocity to dissipate,anesthetized dog,less than ten minutes
same,incidence of dyspnea following REG,[2]; COPD study,61%
same,Number of patients with FEV1 decline by >20% over 120 min,[2]; COPD study N=49,"2 REG, 3 PLC"
same,Number of patients with FEV1 decline by >30% over 120 min,[2]; COPD study N=49,"0 REG, 1 PLC"
same,Number of patients with use of acute oxygen or short-acting bronchodilators,[2]; COPD study N=49,"0 REG, 0 PLC"
same,Number of patients with FEV1 decline by >15% over 120 min,"[2]; COPD study N=49, p = 0.31","6 REG, 3 PLC"
same,Number of patients with new onset wheezing,"[2]; COPD study N=49, p = 0.33 vs PLC","3 REG, 6 PLC"
same,Maximum decline in FEV1,"[2]; COPD study N=49, p = 0.55 vs PLC",0.11 (0.14)L REG
same,Maximum decline in oxygen saturation,"[2]; COPD study N=49, p = 0.72 vs PLC",1.21 (1.30)% REG
same,patients with cardiac symptoms,COPD patients,4%
same,"patients with cardiac symptoms, number",COPD patients,3/69
same,patients with respiratory symptoms,COPD patients,29%
same,"patients with respiratory symptoms, number",COPD patients,20/69
same,potency relative to adenosine in increasing coronary blood flow velocity (CBFv),awake dogs; awake dogs,> 100 fold
same,increase in hind limb blood flow (LBF),"awake dogs; mean ±SE, n=6, FIG. 18",smaller increase in LBF than ADO
same,maximum decrease in diastolic BP,[3]; [4],10±5 mmHg
same,maximum decrease in systolic BP,[3]; [4],20±8 mmHg
same,maximum increase in heart rate,[3]; [4],18±8 bpm
same,tolerability,[3]; 10-500 μg IV bolus,generally well tolerated
same,amount at which plateau peak flow velocity is reached,[3]; IV bolus,less than 100 μg
same,lowest amount that increases peak flow velocity,[3]; IV bolus,10 µg
same,time to peak flow,[3]; all doses (10-500 μg IV bolus),about 30 seconds
same,peak effects compared with adenosine,[3]; doses above about 100 μg,equivalent to 18 μg ic adenosine
same,effect on HR,awake rats; 0.31 μg/kg-50 μg/kg rapid i.v. bolus,dose-dependent increase in HR
same,BP change caused by Regadenoson,awake rats; CVT alone (hexamethonium experiment),−11±2%
same,increase in HR caused by Regadenoson,"awake rats; CVT alone (printed three times: ZM, MET, HEX comparisons)",27±3%
same,decrease in BP caused by Regadenoson,awake rats; Regadenoson alone (ZM241385 experiment),14±3%
